Measurements as given in patent US6548544B1, “Method of treatment of priapism without raising systemic blood pressure” (The National University of Singapore, priority 1999, dated 2003).

Legend:
[1] = test system: Pharmacologically Induced Prolonged Erection (Pipe); assay: Effect on papaverine- and phenoxybenzamine-induced prolonged erection (PIPE), penile length, baboons; assay type: in vivo, baboon; details: for increase in penile length: intracavernous papaverine (40 mg) or phenoxybenzamine (3 mg), within 10 min after administration
Procedure: Six male baboons weighing between 8 kg and 12 kg were used for the experiment. The animals were sedated with ketamine and anaesthetised with intravenous pentobarbitone injected through an indwelling venous catheter. Drugs were injected into the right corpora cavornosa at the mid-third of the shaft using a 29G needle and 1 ml syringe. Blood pressure was monitored through a cannulated femoral artery connected to the transducer. A measuring tape was used to measure penile length visually from a marked point at the base of the penis to the tip of urethral orifice. Changes in penile length were recorded for a period of 100 min after injection.
Intracavernous injection of papaverine (40 mg) or phenoxybenzamine (3 mg) which produced maximal penile length within 20 and 40 min were repeated one week later and prostaglandin A2 was given at the peak time of the turgidity.
In baboons, intracavernous injection of papaverine (40 mg) or phenoxybenzamine (3 mg) produced a 130% increase in penile length within […] after administration (Table 1). This increase in penile length lasted for more than 100 min. This was repeated one week later and when prostaglandin A2 was injected intracavernosally at the maximum rigidity 20 min after the drug administration, the latter produced a marked reduction in penile length and within 40 min of injection, the penile size reduced to the original state of rugosity (Table 1). The fall in systemic blood pressure produced by prostaglandin A2 ranged from 8 to 16 mmHg. Each value reported in Table 1 represents the mean of six experiments.

cavernosum = assay: Other prostaglandins tested using the above protocol (contraction of the cavernosum); assay type: in vivo; details: testing using the above protocol "will demonstrate"

COc1ccc(Cc2nccc3cc(OC)c(OC)cc23)cc1OC [Papaverine, papaverine]
increase in penile length [1]: 130% | Mean Change in Penile Length (% of Control) ([1]; papaverine 40 mg intracavernous alone, 1 min after injection): 30% | Mean Change in Penile Length (% of Control) ([1]; papaverine 40 mg intracavernous alone, 2 min after injection): 40% | Mean Change in Penile Length (% of Control) ([1]; papaverine 40 mg intracavernous alone, 5 min after injection): 52% | Mean Change in Penile Length (% of Control) ([1]; papaverine 40 mg intracavernous alone, 10 min after injection): 130% | Mean Change in Penile Length (% of Control) ([1]; papaverine 40 mg intracavernous alone, 20 min after injection): 130% | Mean Change in Penile Length (% of Control) ([1]; papaverine 40 mg intracavernous alone, 40 min after injection): 130% | Mean Change in Penile Length (% of Control) ([1]; papaverine 40 mg intracavernous alone, 60 min after injection): 130% | Mean Change in Penile Length (% of Control) ([1]; papaverine 40 mg intracavernous alone, 80 min after injection): 130% | Mean Change in Penile Length (% of Control) ([1]; papaverine 40 mg intracavernous alone, 100 min after injection): 130%

CCCCC[C@H](O)/C=C/C1=C(C/C=C\CCCC(=O)O)C(=O)CC1 [prostaglandin B2]
contraction of the cavernosum (cavernosum): effective in inducing, promoting, or otherwise facilitating contraction of the cavernosum but are not as active as prostaglandin A2

CCCCC[C@H](O)/C=C/C1=C(CCCCCCC(=O)O)C(=O)CC1 [prostaglandin B1]
contraction of the cavernosum (cavernosum): effective in inducing, promoting, or otherwise facilitating contraction of the cavernosum but are not as active as prostaglandin A2

CCCCC[C@H](O)/C=C/[C@H]1C=CC(=O)[C@@H]1CCCCCCC(=O)O [prostaglandin A1]
contraction of the cavernosum (cavernosum): effective in inducing, promoting, or otherwise facilitating contraction of the cavernosum but are not as active as prostaglandin A2

CC(COc1ccccc1)N(CCCl)Cc1ccccc1 (centres unmarked) [Phenoxybenzamine, phenoxybenzamine]
increase in penile length [1]: 130% | Mean Change in Penile Length (% of Control) ([1]; phenoxybenzamine 3 mg intracavernous alone, 1 min after injection): 10% | Mean Change in Penile Length (% of Control) ([1]; phenoxybenzamine 3 mg intracavernous alone, 2 min after injection): 15% | Mean Change in Penile Length (% of Control) ([1]; phenoxybenzamine 3 mg intracavernous alone, 5 min after injection): 15% | Mean Change in Penile Length (% of Control) ([1]; phenoxybenzamine 3 mg intracavernous alone, 10 min after injection): 48% | Mean Change in Penile Length (% of Control) ([1]; phenoxybenzamine 3 mg intracavernous alone, 20 min after injection): 80% | Mean Change in Penile Length (% of Control) ([1]; phenoxybenzamine 3 mg intracavernous alone, 40 min after injection): 120% | Mean Change in Penile Length (% of Control) ([1]; phenoxybenzamine 3 mg intracavernous alone, 60 min after injection): 120% | Mean Change in Penile Length (% of Control) ([1]; phenoxybenzamine 3 mg intracavernous alone, 80 min after injection): 120% | Mean Change in Penile Length (% of Control) ([1]; phenoxybenzamine 3 mg intracavernous alone, 100 min after injection): 120%
